According to ChEMBL document CHEMBL1201862, “PubChem BioAssay data set” (2004):
Active and inactive are the calls of the source.

Experiments:
BHK-21 = experiment: BHK-21 cell toxicity, dose response, cytotoxicity control, plate reader, cherry-pick samples (AID 687030); assay type: functional, cell-based; details: Mesocricetus auratus
HeLa = experiment: HeLa cell cytotoxicity, dose response, cytotoxicity control, ATP luminescence, cherry-pick samples (AID 687004); assay type: functional, cell-based; details: Homo sapiens
Albumin = Albumin (Bos taurus, UniProt P02769); experiment: Counterscreen for inhibitors of T-cell receptor (TCR)-CD3 interaction: Fluorescence-based biochemical high throughput dose response assay to identify inhibitors of T-cell receptor (TCR)-CD3 interaction using a TAMRA-labeled BSA probe.; assay type: functional
Beta-lactamase [1] = target: T1, Beta-lactamase (Pseudomonas aeruginosa, UniProt Q79MP6); experiment: […] counterscreen for selective VIM-2 inhibitors: dose response biochemical high throughput screening assay to identify inhibitors of IMP-1 metallo-beta-lactamase.
Beta-lactamase [2] = target: T1, Beta-lactamase; experiment: IMP-1 metallo-beta-lactamase inhibitors, dose response, selectivity assay for VIM-2 inhibitor project, biochemical, epi-absorbance (AID 1920)
Beta-lactamase [3] = target: Beta-lactamase (Salmonella choleraesuis (strain SC-B67), UniProt Q5J463); experiment: Epi-absorbance-based counterscreen for selective VIM-2 inhibitors: dose response biochemical high throughput screening assay to identify inhibitors of TEM-1 serine-beta-lactamase.
[4] = target: SWI/SNF-related matrix-associated actin-dependent regulator of chromatin subfamily A member 2 (Homo sapiens, UniProt P51531); experiment: Luminescence-based cell-based high throughput dose response assay to identify activators of the function of SWI/SNF related, matrix associated, actin dependent regulator of chromatin, subfamily a, member 2 (SMARCA2, BRM).; assay type: functional
[5] = target: T2, DNA repair protein RAD52 homolog (Homo sapiens, UniProt P43351); assay type: functional, biochemical
T2 sequence (P43351 whole entry): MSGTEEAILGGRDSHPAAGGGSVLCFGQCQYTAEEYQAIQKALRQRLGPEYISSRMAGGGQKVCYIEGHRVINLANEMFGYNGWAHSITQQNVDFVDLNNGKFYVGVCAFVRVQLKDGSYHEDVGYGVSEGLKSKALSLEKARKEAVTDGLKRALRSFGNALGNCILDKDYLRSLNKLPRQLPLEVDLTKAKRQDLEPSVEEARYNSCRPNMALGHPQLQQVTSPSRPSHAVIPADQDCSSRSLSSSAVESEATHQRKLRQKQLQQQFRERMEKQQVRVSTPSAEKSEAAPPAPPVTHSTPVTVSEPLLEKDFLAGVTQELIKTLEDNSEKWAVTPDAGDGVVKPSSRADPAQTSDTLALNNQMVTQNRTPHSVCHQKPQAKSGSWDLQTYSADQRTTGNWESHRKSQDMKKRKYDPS

[6] = Counterscreen for activators of the function of SWI/SNF related, matrix associated, actin dependent regulator of chromatin, subfamily a, member 2 (SMARCA2, BRM): Luminescence-based cell-based high throughput dose response assay to identify non-selective compounds using the VP16 reporter assay.; assay type: functional
HEK293 [7] = experiment: cells; details: Homo sapiens
HEK293 [8] = experiment: cells; details: Homo sapiens; remark: listed apart in the source
[9] = target: T3, Mitochondrial peptide methionine sulfoxide reductase (Bos taurus, UniProt P54149); experiment: Absorbance-based biochemical high throughput dose response assay for activators of Methionine sulfoxide reductase A (MsrA).; assay type: functional
T3 sequence (P54149 whole entry): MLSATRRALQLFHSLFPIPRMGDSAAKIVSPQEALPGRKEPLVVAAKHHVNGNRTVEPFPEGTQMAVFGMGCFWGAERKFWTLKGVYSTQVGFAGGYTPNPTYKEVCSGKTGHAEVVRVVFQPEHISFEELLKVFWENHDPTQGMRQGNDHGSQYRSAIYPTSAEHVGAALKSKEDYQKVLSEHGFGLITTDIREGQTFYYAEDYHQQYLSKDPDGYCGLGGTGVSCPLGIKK

[10] = NIH/3T3 fibroblast cytotoxicity, dose response, cytotoxicity control for T. cruzi growth inhibitor project, cell-based, cherry-pick samples, set 2 (AID 651817); assay type: functional; details: NIH3T3
[11] = target: T4, ATP-dependent translocase ABCB1 (Homo sapiens, UniProt P08183); experiment: ABCB1 efflux inhibitor potency, dose response, Jurkat-DNR cells, JC-1, flow cytometry, set 2 (AID 504569); assay type: functional; details: read-out: EC50_MICROM_;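 note: potency of pump inhibitors that raise cellular JC-1 green fluorescence up to the nicardipine level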
H9c2 = experiment: cells; assay type: functional, cell-based; details: Rattus norvegicus, H9c2, Myocardium
[12] = target: T4, ATP-dependent translocase ABCB1; experiment: ABCG2 efflux pump inhibitor potency, dose response, Ig-MXP3 cells, JC-1, flow cytometry, set 2 (AID 504566); assay type: functional; details: read-out: EC50_MICROM_;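 note: flow cytometry median green fluorescence of retained JC-1 dye; potency of efflux pump inhibition measured as rising substrate retention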

T4 sequence (P08183 whole entry): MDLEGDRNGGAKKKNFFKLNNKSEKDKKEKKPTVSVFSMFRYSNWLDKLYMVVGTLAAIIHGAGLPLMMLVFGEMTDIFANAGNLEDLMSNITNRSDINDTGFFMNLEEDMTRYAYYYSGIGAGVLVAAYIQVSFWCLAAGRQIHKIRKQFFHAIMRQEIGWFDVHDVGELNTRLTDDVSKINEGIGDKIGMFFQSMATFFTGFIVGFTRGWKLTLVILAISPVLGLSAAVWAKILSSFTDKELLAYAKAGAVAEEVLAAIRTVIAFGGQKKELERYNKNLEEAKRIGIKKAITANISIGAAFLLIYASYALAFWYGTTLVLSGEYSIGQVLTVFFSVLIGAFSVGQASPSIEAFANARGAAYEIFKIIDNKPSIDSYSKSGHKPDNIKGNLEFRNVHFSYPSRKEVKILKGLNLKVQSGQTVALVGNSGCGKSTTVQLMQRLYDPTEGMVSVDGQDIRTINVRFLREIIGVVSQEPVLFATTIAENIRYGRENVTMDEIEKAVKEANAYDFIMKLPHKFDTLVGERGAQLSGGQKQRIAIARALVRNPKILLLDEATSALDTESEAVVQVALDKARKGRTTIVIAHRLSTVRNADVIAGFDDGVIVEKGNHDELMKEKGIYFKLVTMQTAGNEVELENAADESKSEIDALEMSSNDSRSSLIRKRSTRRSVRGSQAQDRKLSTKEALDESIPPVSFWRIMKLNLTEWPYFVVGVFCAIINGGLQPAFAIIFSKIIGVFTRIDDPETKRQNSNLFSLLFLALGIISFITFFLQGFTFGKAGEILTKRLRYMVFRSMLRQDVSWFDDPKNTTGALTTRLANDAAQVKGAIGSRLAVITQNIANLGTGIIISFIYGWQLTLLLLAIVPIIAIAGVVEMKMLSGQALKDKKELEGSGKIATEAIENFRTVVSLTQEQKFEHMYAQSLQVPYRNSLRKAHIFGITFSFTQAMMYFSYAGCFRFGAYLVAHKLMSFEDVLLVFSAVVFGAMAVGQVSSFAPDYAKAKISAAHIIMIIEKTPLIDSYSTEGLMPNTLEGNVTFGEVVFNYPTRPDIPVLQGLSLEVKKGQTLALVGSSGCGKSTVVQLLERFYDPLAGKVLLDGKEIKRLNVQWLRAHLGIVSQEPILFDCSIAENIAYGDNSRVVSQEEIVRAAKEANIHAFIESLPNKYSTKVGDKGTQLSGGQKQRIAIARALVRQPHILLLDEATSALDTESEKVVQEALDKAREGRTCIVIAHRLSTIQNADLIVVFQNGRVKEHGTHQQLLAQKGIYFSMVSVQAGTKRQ
T1 sequence (Q79MP6 whole entry): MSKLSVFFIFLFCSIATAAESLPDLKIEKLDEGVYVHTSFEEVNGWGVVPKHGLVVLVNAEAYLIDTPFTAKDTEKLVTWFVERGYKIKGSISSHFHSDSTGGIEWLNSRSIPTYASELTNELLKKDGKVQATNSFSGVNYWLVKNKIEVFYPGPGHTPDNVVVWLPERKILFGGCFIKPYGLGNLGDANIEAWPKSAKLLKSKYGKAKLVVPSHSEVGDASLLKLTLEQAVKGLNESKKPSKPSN
Albumin, sequence (P02769 whole entry): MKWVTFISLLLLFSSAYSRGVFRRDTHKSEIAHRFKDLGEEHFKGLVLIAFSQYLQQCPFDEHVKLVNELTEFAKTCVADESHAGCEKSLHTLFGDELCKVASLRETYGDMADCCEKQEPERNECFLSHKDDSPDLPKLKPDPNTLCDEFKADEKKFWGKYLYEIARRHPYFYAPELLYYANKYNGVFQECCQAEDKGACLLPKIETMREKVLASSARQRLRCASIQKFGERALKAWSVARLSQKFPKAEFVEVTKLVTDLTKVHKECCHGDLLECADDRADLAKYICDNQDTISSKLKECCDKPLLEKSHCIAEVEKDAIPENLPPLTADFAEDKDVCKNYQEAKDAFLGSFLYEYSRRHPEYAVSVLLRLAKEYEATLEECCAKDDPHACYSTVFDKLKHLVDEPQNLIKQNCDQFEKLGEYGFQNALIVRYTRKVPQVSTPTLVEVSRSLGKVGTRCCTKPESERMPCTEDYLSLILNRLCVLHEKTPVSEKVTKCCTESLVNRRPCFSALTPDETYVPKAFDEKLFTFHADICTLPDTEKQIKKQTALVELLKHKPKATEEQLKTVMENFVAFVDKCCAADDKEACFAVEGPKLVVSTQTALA
Beta-lactamase (Salmonella choleraesuis (strain SC-B67), UniProt Q5J463), sequence (Q5J463 whole entry): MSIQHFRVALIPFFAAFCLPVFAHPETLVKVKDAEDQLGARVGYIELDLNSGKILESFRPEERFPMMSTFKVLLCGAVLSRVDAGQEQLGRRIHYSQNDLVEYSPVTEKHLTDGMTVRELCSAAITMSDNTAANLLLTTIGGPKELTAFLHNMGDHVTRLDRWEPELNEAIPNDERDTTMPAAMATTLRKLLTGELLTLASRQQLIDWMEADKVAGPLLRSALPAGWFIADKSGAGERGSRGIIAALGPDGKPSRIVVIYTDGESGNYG
SWI/SNF-related matrix-associated actin-dependent regulator of chromatin subfamily A member 2, sequence (P51531 whole entry): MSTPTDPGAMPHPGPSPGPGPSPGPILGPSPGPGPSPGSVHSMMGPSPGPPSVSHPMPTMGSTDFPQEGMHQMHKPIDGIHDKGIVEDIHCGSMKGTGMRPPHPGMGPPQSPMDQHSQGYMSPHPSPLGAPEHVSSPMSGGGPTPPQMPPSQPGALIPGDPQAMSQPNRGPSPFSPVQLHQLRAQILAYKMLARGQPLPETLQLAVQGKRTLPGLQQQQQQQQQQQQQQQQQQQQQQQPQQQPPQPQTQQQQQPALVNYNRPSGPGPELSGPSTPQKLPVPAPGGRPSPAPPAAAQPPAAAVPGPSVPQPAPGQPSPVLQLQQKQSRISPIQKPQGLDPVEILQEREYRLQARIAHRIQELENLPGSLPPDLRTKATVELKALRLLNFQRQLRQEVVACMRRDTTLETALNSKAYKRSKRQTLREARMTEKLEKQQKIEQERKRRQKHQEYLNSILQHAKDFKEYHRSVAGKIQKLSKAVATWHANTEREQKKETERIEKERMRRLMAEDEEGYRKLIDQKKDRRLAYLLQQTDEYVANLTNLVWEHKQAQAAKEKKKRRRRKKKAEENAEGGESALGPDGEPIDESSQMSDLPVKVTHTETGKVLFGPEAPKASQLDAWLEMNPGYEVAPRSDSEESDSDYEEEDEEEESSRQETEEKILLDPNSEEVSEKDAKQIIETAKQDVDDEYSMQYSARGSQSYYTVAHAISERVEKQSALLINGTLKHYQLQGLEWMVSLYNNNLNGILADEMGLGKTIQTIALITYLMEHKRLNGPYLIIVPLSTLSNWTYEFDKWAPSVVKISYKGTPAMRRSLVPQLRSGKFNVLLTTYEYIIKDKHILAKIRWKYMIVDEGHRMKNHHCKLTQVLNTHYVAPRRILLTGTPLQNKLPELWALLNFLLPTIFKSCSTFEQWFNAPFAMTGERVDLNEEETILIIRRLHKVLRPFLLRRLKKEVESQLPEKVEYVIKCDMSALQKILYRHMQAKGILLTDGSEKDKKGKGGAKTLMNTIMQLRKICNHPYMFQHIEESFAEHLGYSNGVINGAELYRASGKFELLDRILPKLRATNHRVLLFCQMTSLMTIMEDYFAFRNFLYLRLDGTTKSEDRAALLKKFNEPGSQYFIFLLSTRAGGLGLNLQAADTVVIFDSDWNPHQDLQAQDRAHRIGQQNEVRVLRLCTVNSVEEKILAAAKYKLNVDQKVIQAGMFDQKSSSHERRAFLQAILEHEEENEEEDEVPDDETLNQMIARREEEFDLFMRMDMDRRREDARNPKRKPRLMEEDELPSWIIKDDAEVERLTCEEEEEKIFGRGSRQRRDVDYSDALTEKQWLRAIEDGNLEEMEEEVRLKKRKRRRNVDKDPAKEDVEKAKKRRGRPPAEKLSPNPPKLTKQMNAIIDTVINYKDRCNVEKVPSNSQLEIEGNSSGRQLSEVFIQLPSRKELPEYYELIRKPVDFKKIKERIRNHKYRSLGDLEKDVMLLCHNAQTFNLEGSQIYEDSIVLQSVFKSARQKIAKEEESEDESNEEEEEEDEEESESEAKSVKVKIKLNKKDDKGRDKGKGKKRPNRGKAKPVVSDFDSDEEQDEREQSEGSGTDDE

## CCN(CC)CC(=O)N1CCCC(N2CCN(c3cccc(C(F)(F)F)c3)CC2)C1 (stereo unspecified)
BHK-21
  AC50: 33.4 µM (active)

## Cc1cccc(N=C(S)NN(Cc2ccccc2)c2ccccc2)c1C
HeLa
  AC50: > 52 µM (inactive)

## CC(C)C(=O)Nc1ccc(C(=O)NNC(=S)NC(=O)c2ccccc2[N+](=O)[O-])cc1
Albumin
  IC50: > 94.1 µM (inactive)

## COc1ccc(-c2n[nH]c(=S)n2-c2ccc3c(c2)OCCO3)cc1OC
Beta-lactamase [1]
  IC50: > 59.6 µM (inactive)
Beta-lactamase [2]
  IC50: > 59.6 µM (inactive)
Beta-lactamase [3]
  IC50: > 59.6 µM (inactive)

## COc1ccc(OC)c2nc3c(C(=O)NCCN(C)C)cccc3nc12
[4]
  EC50: 10.2 µM (inactive)
[5]
  AC50: 0.59 µM (active)
[6]
  EC50: > 91.1 µM (inactive)
HEK293 [7]
  EC50: > 6.63 µM (active)
HEK293 [8]
  EC50: > 59.7 µM (inactive)
[9]
  EC50: 46.5 µM (inactive)

## C[C@H]1CN([C@@H](C)CO)C(=O)c2cccc(NC(=O)Nc3ccc(C(F)(F)F)cc3)c2O[C@H]1CN(C)Cc1ccc(Cl)c(Cl)c1
[10]
  AC50: 13.6 µM (active)

## COc1ccccc1-c1cc2nc(-c3ccccc3)cc(N3CCN(C(=O)c4ccoc4)CC3)n2n1
[11]
  EC50: 2.7 µM (active)
H9c2
  IC50: > 79 µM (inactive)
[12]
  EC50: 0.34 µM (active)
